This passage reports ring closure, yield of all isomers results from US20210253642A1, “CALPAIN MODULATORS AND THERAPEUTIC USES THEREOF BACKGROUND” (Blade Therapeutics, Inc., priority 2018, published 2021).

For the data set the following is noted: from CC(C)[C@H](NC(=O)CC(Sc1ccccc1)[C@H](COC(=O)[C@@H](N)Cc1ccc(O[Si](C)(C)C(C)(C)C)cc1)NC(=O)OC(C)(C)C)C(=O)O; amide bond; FDPP; DMF; 6.97 mM; 20.0 °C; 8.0 h.

As to `CC(C)[C@@H]1NC(=O)CC(Sc2ccccc2)[C@@H](NC(=O)OC(C)(C)C)COC(=O)[C@H](Cc2ccc(O[Si](C)(C)C(C)(C)C)cc2)NC1=O` (stereo partly shown), the ring closure, yield of all isomers amounted to 39.4%.
